Experimental data: patent publication US20250136606A1, “MODULATORS OF TRPML, THEIR COMPOSITIONS AND METHODS OF USE” (Caraway Therapeutics, Inc., priority 2021, published 2025)
pEC50: −log10 of the molar value. Like-named read-outs stand apart in the source and are kept apart here.

Experiments:
Format in all cases: cell-based
TRPML2 = molecular target: T1, TRPML2 (Homo sapiens, UniProt Q8IZK6); experiment: Fluorescent TRPML2 assay (performed as for TRPML1, substituting the TRPML2 subtype)
T1 construct: expressed in transfected cells
T1 sequence (Q8IZK6 1-566): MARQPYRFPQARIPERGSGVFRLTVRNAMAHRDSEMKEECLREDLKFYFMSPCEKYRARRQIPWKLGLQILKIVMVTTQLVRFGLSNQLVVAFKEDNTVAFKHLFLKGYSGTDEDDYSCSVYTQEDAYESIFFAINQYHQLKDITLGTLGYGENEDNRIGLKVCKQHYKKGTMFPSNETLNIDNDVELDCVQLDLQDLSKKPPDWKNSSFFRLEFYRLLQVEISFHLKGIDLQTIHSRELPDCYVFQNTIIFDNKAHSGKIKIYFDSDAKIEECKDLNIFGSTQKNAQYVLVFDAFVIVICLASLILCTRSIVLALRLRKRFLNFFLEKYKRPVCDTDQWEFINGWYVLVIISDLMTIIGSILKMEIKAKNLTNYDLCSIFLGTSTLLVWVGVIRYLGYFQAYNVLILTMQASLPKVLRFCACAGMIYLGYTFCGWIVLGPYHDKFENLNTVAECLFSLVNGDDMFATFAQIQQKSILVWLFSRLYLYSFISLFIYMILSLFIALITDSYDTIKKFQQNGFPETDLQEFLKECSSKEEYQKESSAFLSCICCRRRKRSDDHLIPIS
Outline: (§1)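 HEK-293 Trex cells with doxycycline-induced (0.5 ug/mL) surface-directed human TRPML subtype, loaded with 1 μM Fluo4-AM, resuspended in Ringer's with 10 mM calcium. Compounds at 20 μM to 6 nM final in half-log steps, triplicate; fluorescence ex 480/em 540; EC50 by non-linear regression versus plate controls.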

TRPML3 = molecular target: T2, TRPML3 (Homo sapiens, UniProt Q8TDD5); experiment: Fluorescent TRPML3 assay (performed as for TRPML1, substituting the TRPML3 subtype)
T2 construct: expressed in transfected cells
T2 sequence (Q8TDD5 1-553): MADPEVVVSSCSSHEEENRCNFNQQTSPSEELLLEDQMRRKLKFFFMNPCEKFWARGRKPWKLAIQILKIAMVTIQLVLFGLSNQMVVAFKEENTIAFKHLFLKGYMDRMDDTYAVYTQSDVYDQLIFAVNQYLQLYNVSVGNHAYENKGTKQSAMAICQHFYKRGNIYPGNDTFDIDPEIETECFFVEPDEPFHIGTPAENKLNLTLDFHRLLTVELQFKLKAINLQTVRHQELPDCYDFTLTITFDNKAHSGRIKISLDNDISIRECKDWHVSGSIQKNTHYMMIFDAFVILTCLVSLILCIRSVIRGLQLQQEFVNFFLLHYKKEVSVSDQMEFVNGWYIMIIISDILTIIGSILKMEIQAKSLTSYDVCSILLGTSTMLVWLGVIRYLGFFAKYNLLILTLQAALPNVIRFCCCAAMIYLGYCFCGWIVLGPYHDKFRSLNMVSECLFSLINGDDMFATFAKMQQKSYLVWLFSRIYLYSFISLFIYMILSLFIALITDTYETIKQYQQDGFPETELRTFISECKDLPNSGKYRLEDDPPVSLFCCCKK
Outline: as §1

TRPML1 = TRPML1 (Homo sapiens, UniProt Q9GZU1); experiment: Fluorescent TRPML1 assay (Fluo4-AM calcium fluorescence in doxycycline-induced HEK-293 Trex cells)
Chain of TRPML1 (Q9GZU1 whole entry L15A/L16A/L577A/L578A, form open): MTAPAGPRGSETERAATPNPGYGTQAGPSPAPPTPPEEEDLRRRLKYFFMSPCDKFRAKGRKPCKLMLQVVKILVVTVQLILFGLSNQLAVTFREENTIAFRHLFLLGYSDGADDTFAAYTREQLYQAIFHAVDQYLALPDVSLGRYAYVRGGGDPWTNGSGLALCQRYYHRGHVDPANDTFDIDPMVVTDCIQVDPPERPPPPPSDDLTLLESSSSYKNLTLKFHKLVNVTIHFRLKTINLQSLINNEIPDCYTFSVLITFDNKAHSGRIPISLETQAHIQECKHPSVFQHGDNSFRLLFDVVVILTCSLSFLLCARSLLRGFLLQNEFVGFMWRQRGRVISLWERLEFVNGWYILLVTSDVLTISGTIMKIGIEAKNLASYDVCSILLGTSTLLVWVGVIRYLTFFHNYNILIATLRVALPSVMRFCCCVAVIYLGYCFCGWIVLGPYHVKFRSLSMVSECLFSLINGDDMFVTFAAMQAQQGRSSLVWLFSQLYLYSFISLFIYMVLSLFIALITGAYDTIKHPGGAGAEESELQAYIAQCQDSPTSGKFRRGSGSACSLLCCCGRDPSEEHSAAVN
Outline: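 HEK-293 Trex cells stably carrying human TRPML1 (surface-trafficking mutant) were induced overnight with 0.5 ug/mL doxycycline, loaded with 1 micromolar Fluo4-AM, and suspended in Ringer's with 10 mM calcium. Compounds at 20 micromolar to 6 nanomolar final, half-log steps, triplicate; fluorescence 480/540 nm gave percent activity versus controls and EC50 by non-linear regression.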

| SMILES | pEC50 (TRPML2; fluorescent calcium assay) | pEC50 (TRPML3; fluorescent calcium assay) | pEC50 (TRPML1; fluorescent calcium assay) | pEC50 (TRPML2) | pEC50 (TRPML3) | pEC50 (TRPML1) |
| --- | --- | --- | --- | --- | --- | --- |
| C[C@@H]1CN(C(=O)OC(C)(C)C)CCN1c1ncnc2c1c(N1CCCC1)cn2-c1cccc(Cl)c1 [Compound 209, tert-Butyl (R)-4-(7-(3-chlorophenyl)-5-(pyrrolidin-1-yl)-7H-pyrrolo[2,3-d]pyrimidin-4-yl)-3-methylpiperazine-1-carboxylate] | 6.30 to 7.00 | > 7.00 | > 7.00 |  |  |  |
| C[C@@H]1CN(c2ncnc3c2c(OC(F)F)cn3-c2cc(C#N)ccn2)[C@@H](C)CN1C(=O)OC(C)(C)C [Compound 523, tert-butyl (2R,5S)-4-(7-(4-cyanopyridin-2-yl)-5-(difluoromethoxy)-7H-pyrrolo[2,3-d]pyrimidin-4-yl)-2,5-dimethylpiperazine-1-carboxylate] |  |  |  | > 7.00 | > 7.00 | > 7.00 |
| C[C@@H]1CN(c2ncnc3c2c(C2CCC2)cn3-c2cccc(Cl)c2)[C@@H](C)CN1C(=O)OC(C)(C)C [Compound 647, tert-butyl (2R,5S)-4-(7-(3-chlorophenyl)-5-cyclobutyl-7H-pyrrolo[2,3-d]pyrimidin-4-yl)-2,5-dimethylpiperazine-1-carboxylate] |  |  |  | 5.70 to 6.30 | 5.70 to 6.30 | 6.30 to 7.00 |
| [2H]C([2H])([2H])C(OC(=O)N1C[C@H](C)N(c2ncnc3c2c(C(F)F)cn3-c2cc(C#N)ccn2)C[C@H]1C)(C([2H])([2H])[2H])C([2H])([2H])[2H] [Compound 538, 2-(methyl-d3)propan-2-yl-1,1,1,3,3,3-d6 (2R,5S)-4-(7-(4-cyanopyridin-2-yl)-5-(difluoromethyl)-7H-pyrrolo[2,3-d]pyrimidin-4-yl)-2,5-dimethylpiperazine-1-carboxylate] |  |  |  | 6.30 to 7.00 | > 7.00 | > 7.00 |
| C[C@@H]1CN(c2ncnc3c2c(N2CCC2)cn3-c2cc(C#N)ccn2)[C@@H](C)CN1C(=O)OC(C)(C)C [Compound 489, tert-butyl (2R,5S)-4-(5-(azetidin-1-yl)-7-(4-cyanopyridin-2-yl)-7H-pyrrolo[2,3-d]pyrimidin-4-yl)-2,5-dimethylpiperazine-1-carboxylate] | > 7.00 | > 7.00 | > 7.00 |  |  |  |
| C[C@@H]1CN(c2ncnc3c2c(-c2ccncc2)cn3-c2cc(F)cc(Cl)c2)CCN1C(=O)OC(C)(C)C [Compound 238, tert-butyl (R)-4-(7-(3-chloro-5-fluorophenyl)-5-(pyridin-4-yl)-7H-pyrrolo[2,3-d]pyrimidin-4-yl)-2-methylpiperazine-1-carboxylate] | 5.70 to 6.30 | 6.30 to 7.00 | > 7.00 |  |  |  |
| Cc1cn(-c2cc(C(F)(F)F)ccn2)c2ccnc(N3C[C@@H](C)N(C(=O)OC(C)(C)C)C[C@@H]3C)c12 [Compound 702, tert-butyl (2R,5S)-2,5-dimethyl-4-(3-methyl-1-(4-(trifluoromethyl)pyridin-2-yl)-1H-pyrrolo[3,2-c]pyridin-4-yl)piperazine-1-carboxylate] |  |  |  | 5.70 to 6.30 | 5.70 to 6.30 | > 7.00 |
| C[C@H]1CN(c2ncnc3c2c(C(F)(F)F)cn3-c2cc(C#N)ccn2)[C@@H](C)CN1C(=O)OC(C)(C)C [Compound 502, tert-butyl (25,5S)-4-(7-(4-cyanopyridin-2-yl)-5-(trifluoromethyl)-7H-pyrrolo[2,3-d]pyrimidin-4-yl)-2,5-dimethylpiperazine-1-carboxylate] |  |  |  | 6.30 to 7.00 | > 7.00 | > 7.00 |
| C[C@@H]1CN(c2ncnc3c2c(N2CCC2)cn3-c2cc(C#N)ccn2)CCN1C(=O)OC(C)(C)C [Compound 388, tert-butyl (R)-4-(5-(azetidin-1-yl)-7-(4-cyanopyridin-2-yl)-7H-pyrrolo[2,3-d]pyrimidin-4-yl)-2-methylpiperazine-1-carboxylate] | > 7.00 | > 7.00 | > 7.00 |  |  |  |
| C[C@H]1CN(C(=O)OC(C)(C)C(F)(F)F)CCN1c1ncnc2c1c(C1CC1)cn2-c1ccc(Cl)cc1 [Compound 148, 1,1,1-trifluoro-2-methylpropan-2-yl (S)-4-(7-(4-chlorophenyl)-5-cyclopropyl-7H-pyrrolo[2,3-d]pyrimidin-4-yl)-3-methylpiperazine-1-carboxylate] | 6.30 to 7.00 | > 7.00 | > 7.00 |  |  |  |
| C[C@@H]1CN(c2ncnc3c2c(-c2ccccc2F)cn3-c2cc(C#N)ccn2)CCN1C(=O)OCC(F)(F)F [Compound 378, 2,2,2-trifluoroethyl (R)-4-(7-(4-cyanopyridin-2-yl)-5-(2-fluorophenyl)-7H-pyrrolo[2,3-d]pyrimidin-4-yl)-2-methylpiperazine-1-carboxylate] | > 7.00 | > 7.00 | > 7.00 |  |  |  |
| C[C@@H]1CN(c2ncnc3c2c(-c2ccccc2)cn3-c2cccnc2)[C@@H](C)CN1C(=O)OC(C)(C)C [Compound 169, tert-butyl (2R,5S)-2,5-dimethyl-4-(5-phenyl-7-(pyridin-3-yl)-7H-pyrrolo[2,3-d]pyrimidin-4-yl)piperazine-1-carboxylate] | 5.70 to 6.30 | > 7.00 | > 7.00 |  |  |  |
| C[C@H]1CN(C(=O)OC(C)(C)C)CCN1c1ncnc2c1c(-c1cccnc1)cn2-c1cc(C#N)ccn1 [Compound 353, tert-butyl (S)-4-(7-(4-cyanopyridin-2-yl)-5-(pyridin-3-yl)-7H-pyrrolo[2,3-d]pyrimidin-4-yl)-3-methylpiperazine-1-carboxylate] | > 7.00 | > 7.00 | > 7.00 |  |  |  |
| C[C@@H]1CN(c2ncnc3c2c(-n2ccnc2)cn3-c2cccc(Cl)c2)CCN1C(=O)OC(C)(C)C [Compound 342, tert-butyl (R)-4-(7-(3-chlorophenyl)-5-(1H-imidazol-1-yl)-7H-pyrrolo[2,3-d]pyrimidin-4-yl)-2-methylpiperazine-1-carboxylate] | 5.70 to 6.30 | 6.30 to 7.00 | > 7.00 |  |  |  |
| C[C@H]1CN(C(=O)OC(C)(C)C)CCN1c1ncnc2c1c(N1CCC(F)(F)C1)cn2-c1cccc(Cl)c1 [Compound 308, tert-butyl (S)-4-(7-(3-chlorophenyl)-5-(3,3-difluoropyrrolidin-1-yl)-7H-pyrrolo[2,3-d]pyrimidin-4-yl)-3-methylpiperazine-1-carboxylate] | > 7.00 | > 7.00 | > 7.00 |  |  |  |
| C[C@H]1CN(C(=O)OC(C)(C)C(F)(F)F)CCN1c1ncnc2c1c(-c1cncnc1)cn2-c1cccc(C#N)c1 [Compound 336, 1,1,1-trifluoro-2-methylpropan-2-yl (S)-4-(7-(3-cyanophenyl)-5-(pyrimidin-5-yl)-7H-pyrrolo[2,3-d]pyrimidin-4-yl)-3-methylpiperazine-1-carboxylate] | < 5.70 | > 7.00 | 6.30 to 7.00 |  |  |  |
| CCCOc1cn(-c2cc(C#N)ccn2)c2ncnc(N3C[C@@H](C)N(C(=O)OC(C)(C)C)C[C@@H]3C)c12 [Compound 507, tert-butyl (2R,5S)-4-(7-(4-cyanopyridin-2-yl)-5-propoxy-7H-pyrrolo[2,3-d]pyrimidin-4-yl)-2,5-dimethylpiperazine-1-carboxylate] |  |  |  | > 7.00 | > 7.00 | > 7.00 |
| C[C@@H]1CN(c2ncnc3c2c(C(F)(F)F)cn3-c2cc(C#N)ccn2)[C@@H](C)CN1C(=O)OC1(C)CCC1 [Compound 535, 1-methylcyclobutyl (2R,5S)-4-(7-(4-cyanopyridin-2-yl)-5-(trifluoromethyl)-7H-pyrrolo[2,3-d]pyrimidin-4-yl)-2,5-dimethylpiperazine-1-carboxylate] |  |  |  | > 7.00 | > 7.00 | > 7.00 |
| C[C@H]1CN(C(=O)OC(C)(C)C)CCN1c1ncnc2c1c(N(C)C1CC1)cn2-c1cc(C#N)ccn1 [Compound 442, tert-butyl (S)-4-(7-(4-cyanopyridin-2-yl)-5-(cyclopropyl(methyl)amino)-7H-pyrrolo[2,3-d]pyrimidin-4-yl)-3-methylpiperazine-1-carboxylate] | 5.70 to 6.30 | > 7.00 | > 7.00 |  |  |  |
